{"source": "ChEMBL document CHEMBL1157539", "about": "“Thousands of chemical starting points for antimalarial lead identification” (Nature, 2010)"}
{"system": "Plasmodium falciparum", "assay": "GSK_TCMDC: Inhibition of Plasmodium falciparum 3D7 in whole erythrocytes, using parasite LDH activity as an index of growth.", "type": "functional, organism-based", "conditions": "Plasmodium falciparum, 3D7", "units": {"XC50": "nM"}}
{"smiles": "CN1CCC(N(Cc2ccc(-c3ccc(C(F)(F)F)cc3)cc2)C(=O)Cn2c(SCc3cccc(F)c3F)cc(=O)c3c2CCC3)CC1", "XC50": 161}
{"smiles": "O=C(NC1c2ccccc2Oc2ccccc21)c1ccccc1O", "XC50": 844}
{"smiles": "Cc1ccnc(NC(c2cccc(Cl)c2Cl)c2ccc3cccnc3c2O)c1", "note": "(stereo not given)", "XC50": 1000}
{"smiles": "NC(=O)c1cnc2cc(-c3ccoc3)ccc2c1Nc1ccc(NC(=O)Nc2ccccc2Cl)cc1", "XC50": 538}
{"smiles": "CN(C)Cc1ccc(-c2cccc(NC(=O)c3ccc(Cl)cc3)c2)cc1", "XC50": 900}
{"smiles": "COc1ccc(CCNCCCCNCCc2ccc(OC)c3ccccc23)c2ccccc12", "XC50": 453}
{"smiles": "CCC(CC)(CCC#N)CN(C[C@@H](O)[C@H](Cc1ccccc1)NC(=O)OC(C)(C)C)S(=O)(=O)c1ccc(OC)cc1", "XC50": 1040}
{"smiles": "Nc1c(Cl)cc(C(O)CNCCCCCOCCc2ccc3ccccc3n2)cc1Cl", "note": "(stereo not given)", "XC50": 1020}
{"smiles": "Cc1[nH]c(C)c(-c2ccc(-c3ccc(OC(F)(F)F)cc3)nc2)c(=O)c1Br", "XC50": 249}
{"smiles": "O=C(Nc1cccc(-c2cccc(-c3nc4ccccc4[nH]3)c2)c1)c1cccnc1", "XC50": 646}
{"smiles": "O=C(Nc1ccccc1Cc1ccccc1)c1ccccc1[N+](=O)[O-]", "XC50": 860}
{"smiles": "O=C(Nc1ccc(-c2cccc(-c3nc4ccccc4[nH]3)c2)cc1)Nc1ccsc1", "XC50": 246}
{"smiles": "COc1ccc2nccc([C@@H](O)CN3CCC(NCc4cc5cccc(OCc6ccccc6)c5[nH]4)CC3)c2c1", "XC50": 899}
{"smiles": "COc1cccc(CCNCCCCCCNCCc2ccc(Cl)cc2)c1", "XC50": 1010}
{"smiles": "CN1CCC(NCc2cccc(-c3nn(C)c4nc(NC5CCCC5)ncc34)c2)CC1", "XC50": 1020}
{"smiles": "CO/N=C(\\C)c1ccc2c(c1)CCN(CCC1CCC(NC(=O)c3cccc(-c4noc(C)n4)c3)CC1)CC2", "note": "(stereo not given)", "XC50": 244}
{"smiles": "N#Cc1ccc2c(c1)CCN(CCC1CCC(NC(=O)/C=C/c3c[nH]c4ccc(F)cc34)CC1)CC2", "note": "(stereo not given)", "XC50": 692}
{"smiles": "COc1ccc(OC)c(NC(=O)c2c(-c3c(F)cccc3Cl)noc2C)c1", "XC50": 701}
{"smiles": "COc1ccccc1NC(=O)Nc1cccc(-c2ccc(-c3nc4cccc(C)c4[nH]3)s2)c1", "XC50": 579}
{"smiles": "CCCN(CCCCNC(=O)c1ccc(-c2cccnc2)cc1)C1CCc2c(O)cccc2C1", "note": "(stereo not given)", "XC50": 1120}
{"smiles": "Cc1ccc2nc(C)n(C3CCN(C(=O)Cc4ccc(F)c(F)c4)CC3)c2c1", "XC50": 474}
{"smiles": "CCCCN(CCCC)CCCN(CCCN(CCCC)CCCC)c1cc(C)nc(Nc2ccc(Br)cc2)n1", "XC50": 131}
{"smiles": "NS(=O)(=O)c1ccc(CNc2ccc3ncc(-c4ccc(Cl)cc4)n3n2)cc1", "XC50": 284}
{"smiles": "CCCCCOc1ccc(CC(C)NCC(O)c2cccc(Cl)c2)cc1", "note": "(stereo not given)", "XC50": 653}
{"smiles": "COc1ccc2nccc([C@@H](O)CN3CCC(NCc4ccc5c(c4)NC(=O)CO5)CC3)c2c1", "XC50": 1660}
{"smiles": "CC(=O)Nc1ccc(CN(Cc2cccc(OC(C)(C)C)c2)Cc2ccc3c(c2)OCCO3)cc1", "XC50": 136}
{"smiles": "CCCc1cc(Cc2cnc(N)nc2N)cc(CCC)c1OCCCCCC(=O)OCC", "XC50": 51.7}
{"smiles": "Cc1ccc(CN2CCCN(Cc3cccc(C(=O)Nc4ccc(C(C)(C)C)cc4)c3)CC2)s1", "XC50": 1130}
{"smiles": "CNCc1cccc2nc(-c3csc(Cc4cc(Cl)ccc4OCC(C)C)n3)[nH]c12", "XC50": 718}
{"smiles": "Cc1cccc2nc(-c3ccc(-c4ccc(CNCc5cccc(N)c5)cc4)cc3)[nH]c12", "XC50": 565}
{"smiles": "O=C(/C=C/c1ccc(Cl)c(Cl)c1)NCCCCCN1CCC(NC(=O)NCCc2ccccc2)CC1", "XC50": 722}
{"smiles": "O=C(NC1CCCCC1)N(Cc1cccc(-c2ccc(CNCCc3ccccc3)cc2)c1)C1CCN(Cc2ccccc2)CC1", "XC50": 650}
{"smiles": "O=C(NCC1CCN(CCN2CCC(c3cn(CCO)c4ccccc34)CC2)CC1)c1ccc(-c2ccc(C(F)(F)F)cc2)cc1", "XC50": 438}
{"smiles": "O=S(=O)(Nc1ccc(CCN2CCCCC2CCN2CCCC2)cc1)c1cccc2cccnc12", "note": "(stereo not given)", "XC50": 1300}
{"smiles": "CN(CCCCCN1CCC(NC(=O)Nc2ccc(Oc3ccccc3)cc2)C1)C(=O)/C=C/c1ccc(Cl)c(Cl)c1", "note": "(stereo not given)", "XC50": 421}
{"smiles": "COc1cc2nc(NCCc3ccccc3)nc(NC(C)c3ccccc3)c2cc1OC", "note": "(stereo not given)", "XC50": 281}
{"smiles": "COc1ccc(Cc2c(C)nc3nc(N)nc(N)c3c2C)cc1", "XC50": 284}
{"smiles": "O=C(C=Cc1ccc(Cl)c(Cl)c1)NCCCCCN1CCCC(CCCNC(=O)C2CC2c2ccccc2)C1", "note": "(stereo not given)", "XC50": 1130}
{"smiles": "COc1ccc(CNCc2ccc(F)cc2)cc1-c1cccc(S(=O)(=O)NCCN2CCCC2)c1", "XC50": 805}
{"smiles": "O=S(=O)(/C=C/c1ccccc1)N(Cc1ccc(-c2ccc(CNCCc3ccccn3)cc2)cc1)CC1CCCCN1", "note": "(stereo not given)", "XC50": 742}
{"smiles": "COc1ccc(-c2ccc(NC(=O)c3cccc(F)c3)cc2)cc1CNC(C)C", "XC50": 808}
{"smiles": "FC(F)(F)c1ccc(NC(=S)N2CCC(CN3CCC(c4c[nH]c5ccccc45)CC3)CC2)cc1", "XC50": 663}
{"smiles": "CC(C)c1cccc(OCC2CCN(c3ncc(C(=O)NC4CC4)cc3Cl)CC2)c1", "XC50": 681}
{"smiles": "CCCCc1ccc(-c2ccc3[nH]c(C)c(Br)c(=O)c3c2)cc1", "XC50": 105}
{"smiles": "O=C(/C=C/c1ccc(Cl)c(Cl)c1)N1CCN(C(=O)Nc2cccc(C(F)(F)F)c2)CC1", "XC50": 704}
{"smiles": "O=C(Nc1ccc(Cl)cc1)c1cc(Cl)ccc1NC(=O)C1(c2ccc(Cl)cc2)CCCC1", "XC50": 1100}
{"smiles": "CC(C)CCCC(C)(C)NC[C@@H](O)[C@H](Cc1ccccc1)NC(=O)c1cccc(OCC2CC2)c1", "XC50": 843}
{"smiles": "Cc1ccc(NC(=O)c2cccc(N3CCN(c4ccncc4)CC3)c2)cc1F", "XC50": 1300}
{"smiles": "Cc1c(C(=O)N2CCc3cc4nccc(N5CCN6CCC[C@H]6C5)c4cc32)cnn1-c1ccc(C#N)cc1", "XC50": 994}
{"smiles": "CN1CCCN(c2ccnc3cc4c(cc23)N(C(=O)c2ccccc2Cl)CC4)CC1", "XC50": 1180}
{"smiles": "O=C(/C=C/c1ccc(C(F)(F)F)cc1)NCCCCCN1CCN(C(=O)Nc2ccc(Cl)cc2)CC1", "XC50": 1010}
{"smiles": "CCN(CCCN1CCCCC1)c1cc(C)nc(Nc2cccc(C(F)(F)F)c2)n1", "XC50": 289}
{"smiles": "CCCC(C)NC(=O)/C=C/c1ccccc1-c1cccc(OC)c1", "note": "(stereo not given)", "XC50": 1250}
{"smiles": "O=C(NCc1ccc(Cl)cc1)c1ccc(CN2CCCN(CC3CCCCC3)CC2)cc1", "XC50": 1700}
{"smiles": "COc1ccc(C(=O)Nc2ccc3nc(N4CCCCC4)cc(C)c3c2)cc1[N+](=O)[O-]", "XC50": 779}
{"smiles": "OC(CNc1ccnc(Nc2ccc(Cl)cc2)n1)c1ccc(C(F)(F)F)cc1", "note": "(stereo not given)", "XC50": 771}
{"smiles": "O=C(/C=C/c1ccc(Cl)c(Cl)c1)NC1CCC(CN2CCC(c3cc4ccccc4[nH]3)CC2)CC1", "note": "(stereo not given)", "XC50": 987}
{"smiles": "Fc1cccc(COc2ccc(Nc3ncnc4sc(C#CCNC5CCC5)cc34)cc2Cl)c1", "XC50": 875}
{"smiles": "COc1ccc(S(=O)(=O)Nc2cc(C)cc(Br)c2OC)cc1N1CCN(C(=O)C(Cl)(Cl)Cl)CC1", "XC50": 871}
{"smiles": "COC1CCC(C(=O)Nc2ccc(-c3cccc(-c4nc5cccc(C)c5[nH]4)c3)cc2)CC1", "note": "(stereo not given)", "XC50": 585}
{"smiles": "Cc1ccc2sc(N(CCCn3ccnc3)C(=O)c3ccco3)nc2c1C", "XC50": 966}
{"smiles": "CN(C)c1cccc(CCNCCc2c[nH]c3ccc(Cl)cc23)c1", "XC50": 436}
{"smiles": "CN(CCCCNC(=O)c1ccc(-c2ccccc2)cc1)C1CCc2c(O)cccc2C1", "note": "(stereo not given)", "XC50": 724}
{"smiles": "CCCCCCN1CCC(CNCc2cccc(Cl)c2)CC1", "XC50": 1220}
{"smiles": "COc1ccc(CNC2Cc3ccccc3C2)cc1-c1ccc(S(=O)(=O)NCc2ccccc2)s1", "XC50": 832}
{"smiles": "CC1=C(C(=O)Nc2ccccc2)C(c2ccc([N+](=O)[O-])cc2)n2ncc(C(=O)Nc3ccccc3)c2N1", "note": "(stereo not given)", "XC50": 1240}
{"smiles": "NCCNS(=O)(=O)c1ccc(-c2ccnc3[nH]c(-c4ccncc4)cc23)cc1", "XC50": 840}
{"smiles": "O=C(Nc1ccccc1)c1ccc(N2CCC(COc3cccc(C(F)(F)F)c3)CC2)nc1", "XC50": 298}
{"smiles": "CS(=O)(=O)Nc1ccc2[nH]cc(C3CC4CCC(C3)N4CC3CCC(NC(=O)/C=C/c4ccc(Cl)c(Cl)c4)CC3)c2c1", "note": "(stereo not given)", "XC50": 872}
{"smiles": "N#Cc1c(Cl)cccc1Oc1ccc(S(=O)(=O)N2CCC(CN3CCC(c4c[nH]c5ccccc45)CC3)CC2)cc1", "XC50": 745}
{"smiles": "O=C(Nc1ccc([N+](=O)[O-])cc1Cl)c1cc(Br)cc(Cc2ccccc2)c1O", "XC50": 1290}
{"smiles": "CCOC(=O)c1c(SCc2cccc(F)c2F)[nH]c2ccccc2c1=O", "XC50": 644}
{"smiles": "O=C(CN1CCCC1)Nc1cccc(C(=O)Nc2cccc(C(F)(F)F)c2)c1", "XC50": 510}
{"smiles": "Fc1ccc2[nH]ccc(=NN=Cc3ccccc3Cl)c2c1", "XC50": 922}
{"smiles": "O=C(NCCCCN1CCC(c2ccc3c(c2OCCO)CCCC3)CC1)c1ccc2oc(-c3ccc(C(F)(F)F)cc3)cc2c1", "XC50": 340}
{"smiles": "O=C(N[C@@H](Cc1ccccc1)C(=O)NC1CCCCCC1)c1ccc(O)c(-c2ccc(Cl)c(Cl)c2)c1", "XC50": 329}
{"smiles": "Cc1ccccc1Nc1nc(Nc2ccccc2)c2ccccc2n1", "XC50": 998}
{"smiles": "O=C(/C=C/c1ccc(Cl)c(Cl)c1)NCCCCCCN1CCCN(C(=O)Nc2cccc(C(F)(F)F)c2)CC1", "XC50": 793}
{"smiles": "Cn1cnc(CCNC(=O)c2ccc(-c3cccc(-c4nc5cc(F)ccc5[nH]4)c3)cc2)c1", "XC50": 680}
{"smiles": "O=C(/C=C/c1ccc(Cl)c(Cl)c1)N1CCC(NCc2c[nH]c3ccccc23)CC1", "XC50": 1070}
{"smiles": "COc1ccc(NC(=O)c2ccc(-c3nc(-c4cccc(C(F)(F)F)c4)cs3)cc2)cc1N1CCN(C)CC1", "XC50": 818}
{"smiles": "Cn1ccnc1CNC(=O)c1ccc(-c2cccc(-c3nc4cc(C(F)(F)F)ccc4[nH]3)c2)cc1", "XC50": 723}
{"smiles": "NC(=O)c1c(Cl)nc2ccccc2c1Cl", "XC50": 960}
{"smiles": "CC1(C)NC(N)=NC(=N)N1OCCCNC(=O)c1ccc(C(=O)NCCCON2C(=N)N=C(N)NC2(C)C)cc1", "XC50": 21.6}
{"smiles": "Cc1cc2nc(-c3cccc(C(=O)NC4CCN(Cc5ccccc5)CC4)c3)[nH]c2cc1C", "XC50": 828}
{"smiles": "Cc1ccc(Nc2nc(C)cc(N3CCN(CCc4ccccc4)CC3)n2)cc1", "XC50": 972}
{"smiles": "Cc1csc(-c2ccc3[nH]cc(C4=CCN(C)CC4)c3c2)n1", "XC50": 754}
{"smiles": "COc1ccc(C(=O)N2CCC3(CC2)C(=O)N(CC(=O)NCC2CCCCC2)CN3c2ccccc2)c(OC)c1", "XC50": 119}
{"smiles": "CC(C)c1ccc(CN2CCC(CNC(=O)c3cc(-c4ccccc4F)cs3)C2)cc1", "note": "(stereo not given)", "XC50": 993}
{"smiles": "O=C(Nc1ccc(Cl)c(Cl)c1)N1CCc2cc3nccc(N4CCN5CCC[C@H]5C4)c3cc21", "XC50": 628}
{"smiles": "COc1ccc(-c2cc(C(=O)N3CCc4ccccc43)c3ccccc3n2)cc1OC", "XC50": 327}
{"smiles": "NC1CCN(Cc2cccc(-c3cccc(-c4nc5ccccc5[nH]4)c3)c2)C1", "note": "(stereo not given)", "XC50": 790}
{"smiles": "O=S(=O)(Nc1cccc(CCN2CCC(N3CCCCC3)CC2)c1)c1cccc2ccccc12", "XC50": 937}
{"smiles": "COc1cc(Nc2nccc(N3CCC(NC(=O)Nc4cc(C)ccc4C)C3)n2)cc(OC)c1OC", "note": "(stereo not given)", "XC50": 1120}
{"smiles": "COc1ccc(NC(=O)c2csc(-c3cc(NC(=O)c4ccnc(N5CCCC5)c4)ccc3C)c2)cc1N1CCN(C)CC1", "XC50": 660}
